Measured values published in patent US20200278355A1, “CONJUGATED PROTEINS AND USES THEREOF” (THE SCRIPPS RESEARCH INSTITUTE, priority 2017, published 2020).

Target: T1, HA-NR0B1-WT binding to FLAG-SNW1 (Homo sapiens, UniProt P51843)
T1 construct: expressed in transfected cells; host or cells: HEK293T (pRK5-based plasmids)
Test: Modified in vitro binding assay: HA-NR0B1-WT from compound-treated HEK293T cells binding to FLAG-SNW1
Format: cell-based
Details: HEK293T cells expressing HA-NR0B1-WT treated with compound, lysate binding to FLAG-SNW1
Method: FIG. 5A-FIG. 5G show covalent ligand targeting C274 disrupts NR0B1 protein complexes. […] Percentage of NR0B1 bound to SNW1 was normalized to vehicle (DMSO). A hit compound BPK-26 is marked in red. […] HEK293T cells expressing the indicated proteins were treated with BPK-29 or vehicle (3 h) prior to treatment with BPK-29yne (30 min). Immunoprecipiated proteins were analyzed by in-gel fluorescence-scanning and immunoblotting. […] HEK293T cells expressing HA-NR0B1-WT or HA-NR0B1-C274V proteins were treated with DMSO or BPK-29, after which lysates were generated and evaluated for binding to FLAG-SNW1, as shown in (B).
FIG. 11A-FIG. 11F illustrate a covalent ligand targeting Cys274 disrupts NR0B1 protein complexes. […] See also FIG. 5C. […] Top: Structures of screening hit BPK-28 and synthesized derivatives. […] FLAG-immunoprecipitates were prepared from each lysate and subjected to proteolytic digestion, whereupon tryptic peptides harboring C274 were analyzed by LC-MS/MS. […] Immunoprecipitates were analyzed by in-gel fluorescence-scanning to assess BPK-29yne labeling or by immunoblot for FLAG-NR0B1. […] In a modified in vitro binding assay shown in FIG. 5B, HEK293T cells expressing HA-NR0B1-WT or an HA-NR0B1-C274V mutant were treated with DMSO or BPK-26 (20 μM, 3 h), after which lysates were and interaction with FLAG-SNW1 assessed. […]

T1 sequence (P51843 whole entry): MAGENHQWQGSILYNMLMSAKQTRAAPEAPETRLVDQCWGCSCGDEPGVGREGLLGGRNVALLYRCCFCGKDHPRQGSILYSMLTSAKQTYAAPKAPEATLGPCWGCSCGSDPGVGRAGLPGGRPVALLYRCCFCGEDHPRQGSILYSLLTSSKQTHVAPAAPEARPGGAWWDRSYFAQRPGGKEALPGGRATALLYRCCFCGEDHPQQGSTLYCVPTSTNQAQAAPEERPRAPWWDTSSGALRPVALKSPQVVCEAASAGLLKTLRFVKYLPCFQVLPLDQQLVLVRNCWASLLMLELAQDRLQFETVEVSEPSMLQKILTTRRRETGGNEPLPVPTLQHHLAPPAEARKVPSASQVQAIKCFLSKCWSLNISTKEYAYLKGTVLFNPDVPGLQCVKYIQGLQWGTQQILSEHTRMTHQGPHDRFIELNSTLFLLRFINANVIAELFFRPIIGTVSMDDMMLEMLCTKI

SMILES: O=C(c1ccc(N2CCOCC2)cc1)N1CCCC(N(Cc2ccccc2)C(=O)CCl)CC1 (stereo not shown) [BPK-29, N-benzyl-2-chloro-N-(1-(4-morpholinobenzoyl)azepan-4-yl)acetamide]
- disruption of NR0B1-WT protein interactions (binding to FLAG-SNW1): disrupts protein interactions for NR0B1-WT
